Source: ChEMBL document CHEMBL1144409, “Synthesis of new quinoxaline-2-carboxylate 1,4-dioxide derivatives as anti-Mycobacterium tuberculosis agents” (J Med Chem, 2005)
Converted amounts (≈) assume the structure as drawn.

What was measured:
Type in all cases: functional
[1] = tested on: Mycobacterium tuberculosis; assay: In vitro minimum inhibitory concentration value against thiacetazone resistant Mycobacterium tuberculosis in alamar assay
[2] = tested on: Mycobacterium tuberculosis; assay: In vitro minimum inhibitory concentration value against ethionamide resistant Mycobacterium tuberculosis in alamar assay
[3] = tested on: Mycobacterium tuberculosis; assay: Ratio of the MIC value of the Mycobacterium tuberculosis ethionamide resistant strain to H37Rv strain was determined
[4] = tested on: Mycobacterium tuberculosis; assay: In vitro minimum inhibitory concentration value against ciprofloxacin resistant Mycobacterium tuberculosis in alamar assay
[5] = tested on: Mycobacterium tuberculosis; assay: Ratio of the MIC value of the Mycobacterium tuberculosis ethambutol resistant strain to H37Rv strain was determined
[6] = tested on: Mycobacterium tuberculosis; assay: Ratio of the MIC value of the Mycobacterium tuberculosis rifampin resistant strain to H37Rv strain was determined
[7] = tested on: Mycobacterium tuberculosis; assay: Ratio of the MIC value of the Mycobacterium tuberculosis ciprofloxacin resistant strain to H37Rv strain was determined
[8] = tested on: Mycobacterium tuberculosis; assay: Ratio of the MIC value of the Mycobacterium tuberculosis isoniazid resistant strain to H37Rv strain was determined
[9] = tested on: Mycobacterium tuberculosis; assay: In vitro minimum inhibitory concentration value against isoniazid resistant Mycobacterium tuberculosis in alamar assay
[10] = tested on: Mycobacterium tuberculosis; assay: Ratio of the MIC value of the Mycobacterium tuberculosis kanamycin resistant strain to H37Rv strain was determined
[11] = tested on: Mycobacterium tuberculosis; assay: In vitro minimum inhibitory concentration value against rifampin resistant Mycobacterium tuberculosis in alamar assay
[12] = tested on: Mycobacterium tuberculosis; assay: Ratio of the MIC value of the Mycobacterium tuberculosis thiacetazone resistant strain to H37Rv strain was determined
[13] = tested on: Mycobacterium tuberculosis; assay: In vitro minimum inhibitory concentration value against kanamycin resistant Mycobacterium tuberculosis in alamar assay
[14] = tested on: Mycobacterium tuberculosis; assay: In vitro minimum inhibitory concentration value against ethambutol resistant Mycobacterium tuberculosis in alamar assay

Compound | MIC [1] [µg/mL] | MIC [2] [µg/mL] | Ratio [3] | MIC [4] [µg/mL] | Ratio [5] [µg/mL] | Ratio [6] [µg/mL] | Ratio [7] | Ratio [8] | MIC [9] [µg/mL] | Ratio [10] [µg/mL] | MIC [11] [µg/mL] | Ratio [12] [µg/mL] | MIC [13] [µg/mL] | MIC [14] [µg/mL]
CCc1c(C(=O)OC)[n+]([O-])c2cc(C)c(C)cc2[n+]1[O-] | 0.78 (≈ 2.82 µM) | 0.78 (≈ 2.82 µM) | 2 µg/mL | 0.39 (≈ 1.41 µM) | 2 | 1 | 1 µg/mL | 4 µg/mL | 1.56 (≈ 5.65 µM) | 1 | 0.39 (≈ 1.41 µM) | 2 | 0.39 (≈ 1.41 µM) | 0.78 (≈ 2.82 µM)
COC(=O)c1c(Cc2ccccc2)[n+]([O-])c2cc(Cl)c(Cl)cc2[n+]1[O-] | ≤ 3.13 | 6.25 (≈ 16.5 µM) | >=2 ug ml-1 | 12.5 (≈ 33 µM) | 1 | 1 | >=3.99 ug ml-1 | >=2 ug ml-1 | 6.25 (≈ 16.5 µM) | 1 | ≤ 3.13 | 1 | ≤ 3.13 | ≤ 3.13
